Assay [1] deals with Staphylococcus aureus 133. Description: Determination of minimum inhibitory concentration (MIC), liquid dilution test. It is filed as cell-based. The protocol:
(§1) Determination of Minimum Inhibitory Concentration (MIC):
(§2) The MIC is determined in the liquid dilution test. Overnight cultures of the test organisms are diluted to a cell count of 10^5 organisms per ml in Isosensitest medium (manufacturer: Difco) and are incubated with dilutions of the test substances (1:2 dilution states). Exceptions are the tests with S. pneumoniae G9A, which are conducted in BHI broth (Difco) plus 20% bovine serum, and with H. influenzae, which are conducted in BHI broth (Difco) plus 20% bovine serum, 10 μg/ml hemin and 1% Isovitale (Becton Dickinson).
(§3) The cultures are incubated at 37° C. for 18-24 hours; S. pneumoniae and H. influenzae in the presence of 8-10% CO2.
(§4) The lowest concentration of each substance at which there was no longer any visible bacterial growth is defined as the MIC. The MICs in μmol/l of some compounds according to the invention against a series of test organisms are listed by way of example in the table below.

The subject of assay [2] is Haemophilus influenzae Spain 7. The assay is described as above. The class given is cell-based. The conditions noted are these: SPAIN7, BHI broth plus 20% bovine serum, 10 μg/ml hemin and 1% Isovitale, 37° C., 18-24 hours, 8-10% CO2. On the procedure: as §1, §2, §3, §4
The conditions of assay [3]: described in the literature; cited from earlier work.
The mark [4] stands for this setting: Staphylococcus aureus, 133, liquid dilution test, Isosensitest medium, 10^5 organisms per ml, 37° C., 18-24 hours, lowest concentration with no visible growth, read-out: MIC Staphylococcus aureus 133.

Each structure is given as a SMILES string. In brackets after ≈: the same amount, converted by molar mass. Read-outs that look alike come from different tables or passages of the source.

With `CC(C)[C@H](NC(=O)CC(NC(=O)Oc1ccc(-c2ccccc2)cc1)c1ccccc1)C(=O)[C@@H]1C(=O)NC(=O)[C@H]1C` (stereo partly shown) [Example 35], in assay [1] (Staphylococcus aureus, 133, read-out: MIC Staphylococcus aureus 133), the MIC was found to be 0.98 µM (≈ 0.545 µg/mL).

Turning to `CC(C)[C@H](NC(=O)CC(NC(=O)Nc1ccc(Cl)c(C(F)(F)F)c1)c1ccccc1)C(=O)[C@@H]1C(=O)NC(=O)[C@H]1C` (stereo partly shown) [Example 10], the MIC in assay [1] (setting [4]) is 7.8 µM (≈ 4.53 µg/mL); in assay [2] it was 125 µM.

Take `C[C@@H]1C(=O)NC(=O)[C@H]1C(=O)C(NC(=O)C[C@H](NC(=O)OC(C)(C)C)c1ccccc1)C1CCCC1` (stereo partly shown) [Example 33]: the MIC is 31.3 µM (≈ 15.2 µg/mL) in assay [1] (setting [4]) and 125 µM in assay [2].

In the case of `CC(C)[C@H](NC(=O)C[C@H](NC(=O)N(C)c1ccccc1)c1ccccc1)C(=O)[C@@H]1C(=O)NC(=O)[C@H]1C` [Example 7, (S)-N-{(S)-2-Methyl-1-[1-((3R,4S)-4-methyl-2,5-dioxopyrrolidin-3-yl)methanoyl]-propyl}-3-(3-methyl-3-phenylureido)-3-phenylpropionamide], the MIC in assay [1] (setting [4]) amounted to 15.6 µM (≈ 7.68 µg/mL); in assay [2] it was 31.3 µM.

As for `CC(C)[C@H](NC(=O)C[C@H](NS(=O)(=O)/C=C/c1ccccc1)c1ccccc1)C(=O)[C@@H]1C(=O)NC(=O)[C@H]1C` [Example 47, (3S)-N-((1S)-2-Methyl-1-{[(3R,4S)-4-methyl-2,5-dioxo-3-pyrrolidinyl]carbonyl}-propyl)-3-phenyl-3-({[(E)-2-phenylethenyl]sulfonyl}amino)propionamide], the MIC in assay [1] (setting [4]) came to 7.8 µM (≈ 4.1 µg/mL); in assay [2], 125 µM.

For the compound `CC(C)[C@H](NC(=O)C[C@H](NC(=O)Nc1ccccc1)c1ccccc1)C(=O)[C@@H]1C(=O)NC(=O)[C@H]1C` [Example 5, (S)-N-{(S)-2-Methyl-1-[1-((3R,4S)-4-methyl-2,5-dioxopyrrolidin-3-yl)-methanoyl]-propyl}-3-phenyl-3-(3-phenylureido)propionamide], in assay [1] (setting [4]), the MIC worked out at 62.5 µM (≈ 29.9 µg/mL).

As for `C/C=C/C=C/C=C/C(=O)N[C@@H](CC(=O)N[C@H](C(=O)[C@@H]1C(=O)NC(=O)[C@H]1C)C(C)C)c1ccccc1` [andrimid], the antibacterial activity entry in assay [3] is “having antibacterial activity”.

For `CC(C)[C@H](NC(=O)C[C@H](NC(=O)NCc1ccccc1)c1ccccc1)C(=O)[C@@H]1C(=O)NC(=O)[C@H]1C` [Example 2, (S)-3-(3-Benzylureido)-N-{(S)-2-methyl-1-[1-((3R,4S)-4-methyl-2,5-dioxopyrrolidin-3-yl)-methanoyl]propyl}-3-phenylpropionamide], the MIC is 3.9 µM (≈ 1.92 µg/mL) in assay [1] (setting [4]) and 62.5 µM in assay [2].

Turning to `C/C=C/C=C/C(=O)N[C@@H](CC(=O)N[C@H](C(=O)[C@@H]1C(=O)NC(=O)[C@H]1C)C(C)C)c1ccccc1` [moiramide B], in assay [3], the antibacterial activity result was “having antibacterial activity”.

Regarding `CC(C)[C@H](NC(=O)CC(NC(=O)Nc1cccc2ccccc12)c1ccccc1)C(=O)[C@@H]1C(=O)NC(=O)[C@H]1C` (stereo partly drawn) [Example 9, N-((1s)-2-Methyl-1-{[(3R,4S)-4-methyl-2,5-dioxo-3-pyrrolidinyl]carbonyl}propyl)-3-{[(1-naphthylamino)carbonyl]amino}-3-phenylpropionamide], the MIC in assay [1] (setting [4]) is 7.8 µM (≈ 4.12 µg/mL); in assay [2], 62.5 µM.

Consider `C/C=C/C=C/C=C/C(=O)N[C@@H](CC(=O)N[C@H](C(=O)[C@@]1(O)C(=O)NC(=O)[C@H]1C)C(C)C)c1ccccc1` [moiramide C], for which the antibacterial activity entry in assay [3] is “inactive”.

Turning to `COc1ccc(NC(=O)N[C@@H](CC(=O)N[C@H](C(=O)[C@@H]2C(=O)NC(=O)[C@H]2C)C(C)C)c2ccccc2)cc1` [Example 6, (S)-3-[3-(4-Methoxyphenyl)ureido]-N-{(S)-2-methyl-1-[1-((3R,4S)-4-methyl-2,5-dioxopyrrolidin-3-yl)methanoyl]propyl}-3-phenylpropionamide], the MIC came to 62.5 µM (≈ 31.8 µg/mL) in assay [1] (setting [4]) and 62.5 µM in assay [2].

The values are drawn from patent publication US7544709B2, “Derivatives of andrimide and moiramide B having antibacterial properties” (Bayer Healthcare AG, priority 2001, dated 2009).
